Assays:
fibroid tissue [1] = experiment: Gene expression profiling (Affymetrix microarray, RT-PCR) of fibroid tissue after 90 days treatment; assay type: in vivo, human (women)
Method: (§1) Pre-menopausal women with symptomatic fibroids received ulipristal (10 or 20 mg; n=12) or placebo (PL) (n=6) in a blinded, randomized allocation, for 90 days before hysterectomy. No other hormonal therapy was given. Fibroid tissue and adjacent myometrium were collected at surgery and processed in RNAlater (for RNA isolation). Fibroid tissue also was processed for paraffin embedding (for immunohistochemisty (IHC) and TUNEL assay). Total RNA was used for Affymetrix microarray with the U133 Plus 2.0 human chip. Differential transcription of genes of interest was confirmed by RT-PCR analysis. The TUNEL assay and IHC for Ki67 and phosphorylaied histone 3 (phospho H3) were applied to paraffin embedded tissue sections, and the percentage of positive stained cells was noted to assess apoptosis and proliferation. RT-PCR results and proliferation assays were analyzed using two-tailed student t-test; Kruskal-Wallis test was used to assess TUNEL assay results; P<0.05 was considered significant.

[2] = tested on: benign metastatic leiomyoma; experiment: Compassionate treatment of benign metastatic leiomyoma (single patient); assay type: in vivo, human; settings: daily oral dose of 10-20 mg
Method: A person with known benign metastatic leiomyoma status post abdominal surgery that confirmed multiple nodules was treated with ulipristal (daily oral dose of 10-20 mg), in a compassionate protocol. […] More importantly, their pulmonary function tests improved from 50% of predicted to 103% of predicted after 3 months of treatment. They felt better.

[3] = tested on: menstrual bleeding in women with symptomatic fibroids; experiment: Randomized placebo-controlled trial: menstrual function / bleeding; assay type: in vivo, human (women); settings: for menstrual bleeding: 3 cycles/90 days, placebo had monthly menses; for menses compared to placebo: 10 or 20 mg daily, 90 days
Excerpt: (§2) Healthy women aged 33-50 years with symptomatic fibroids and regular menstrual cycles were considered for enrollment.
(§3) Inclusion criteria included regular cycles and contraceptive use, and symptomatic fibroids as defined by ACOG practice bulletin 1994: • Excessive uterine bleeding evidenced by either of the following: profuse bleeding with flooding or clots or repetitive periods lasting for more than 8 days; or anemia due to acute or chronic blood loss; • or pelvic discomfort caused by leiomyomata, either acute or severe or chronic lower abdominal or low back pressure or bladder pressure with urinary frequency not due to urinary tract infection.
(§4) Exclusion criteria included pregnancy, hemoglobin <10 g/dL, current hormone therapy, rapidly enlarging uterus and FSH […]. MR images were obtained to record fibroid number, location and volume, before starting study drug and within 2 weeks of surgery. Women took ulipristal at an oral dose of 10 or 20 mg, or placebo (PLC: microcrystalline cellulose) for 3 cycles, or 90 days if they became anovulatory. The percent change in total fibroid volume was compared, Wilcoxon rank sum test and t-test were used as needed.
Additional analyses evaluated treatment-related differences in menstrual function.

uterine fibroids = experiment: Randomized, placebo-controlled, double blinded, parallel trial: change in total fibroid volume by MR imaging; assay type: in vivo, human (women); settings: for reduction in fibroid volume: three months (90 days), placebo +6%
Excerpt: as §2, §3, §4

fibroid tissue [4] = experiment: TUNEL assay and IHC for Ki67 and phospho H3 on fibroid tissue sections (apoptosis and proliferation); assay type: in vivo, human (women); settings: compared to placebo
Method: as §1

fibroid = settings: Murphy 1995, Zeng 1998; cited from earlier work

## 17α-acetoxy-11β-[4N,N-dimethylamino-phenyl) -19-norpregna- 4,9-diene-3,20-dione [ulipristal]
Fibroid tissue [1]; microarray, 2 fold change cut-off and P<0.02
  genes expressed differentially between ulipristal and placebo: 314 genes
Fibroid tissue [1]; ulipristal (10 or 20 mg, 90 days) treated compared to placebo, P 0.001
  Fold change of RT-PCR gene product, NDP: −5.6
Fibroid tissue [1]; ulipristal (10 or 20 mg, 90 days) treated compared to placebo, P 0.006
  Fold change of RT-PCR gene product, PLP1: 9.2
Fibroid tissue [1]; ulipristal (10 or 20 mg, 90 days) treated compared to placebo, P 0.008
  Fold change of RT-PCR gene product, Wnt5A: −2.4
Fibroid tissue [1]; ulipristal (10 or 20 mg, 90 days) treated compared to placebo, P 0.014
  Fold change of RT-PCR gene product, ZAK: 1.5
Fibroid tissue [1]; ulipristal (10 or 20 mg, 90 days) treated compared to placebo, P 0.017
  Fold change of RT-PCR gene product, FAIM: −1.8
Fibroid tissue [1]; ulipristal (10 or 20 mg, 90 days) treated compared to placebo, P 0.019
  Fold change of RT-PCR gene product, Clu: −2.1
Fibroid tissue [1]; ulipristal (10 or 20 mg, 90 days) treated compared to placebo, P 0.224
  Fold change of RT-PCR gene product, Bcl2: −1.5
[2]
  liver nodule: decrease in a liver nodule
  right pleural effusion: resolution of a right pleural effusion
[2]; after 3 months of treatment, improved from 50% of predicted
  pulmonary function tests: 103 % of predicted
[2]; two uterine fibroids
  uterine fibroids: some decrease in two uterine fibroids
[3]; 10 mg oral daily
  menstrual bleeding: single episode of menstrual bleeding
[3]; 20 mg oral daily
  menstrual bleeding: no woman receiving 20 mg had any bleeding
[3]
  menses compared to placebo: induced amenorrhea
[3]; listed as CDB-2914
  menses compared to placebo: significant reduction in menses
Uterine fibroids; 10 mg and 20 mg groups combined, three months, placebo 6%, p=0.01
  change in total fibroid volume: -29%
Uterine fibroids; 10 mg oral daily
  reduction in fibroid volume: 36%
Uterine fibroids; 20 mg oral daily
  reduction in fibroid volume: 21%
Fibroid tissue [4]; IHC Ki67 and phospho H3, fibroids after 90 days 10 or 20 mg
  measures of proliferation: decreased measures of proliferation
Fibroid tissue [4]; TUNEL assay, fibroids after 90 days 10 or 20 mg
  measures of apoptosis: increased measures of apoptosis

## CC#C[C@]1(O)CC[C@H]2[C@@H]3CCC4=CC(=O)CCC4=C3[C@@H](c3ccc(N(C)C)cc3)C[C@@]21C [mifepristone]
fibroid
  fibroid size: reduced fibroid size in a dose-dependent manner

Source: patent publication US20170246189A1, “METHOD FOR TREATING UTERINE FIBROIDS” (LABORATOIRE HRA-PHARMA, priority 2008, published 2017)
